Measured values published in patent US11642346B2, “Combination therapy for treating cancer” (Epizyme, Inc., priority 2017, dated 2023).

Key:
CHLA-266 cells [1] = assay: Combination of tazemetostat with other agents, pretreatment model, luminescent cell viability (ATP) assay; format: cell-based; conditions: pretreatment model: 4 days tazemetostat, then 4 days agent alone or with tazemetostat, synergy by Loewe Volume, Fa-CI plots
Procedure: (§1) Proliferation data was read for luminescence. Calculations of synergy were performed using the Loewe Volume (Chalice Software) and Fa-CI plots were generated with Calcusyn.

BT-12 cells [2] = assay: as above; format: cell-based; conditions: pretreatment model: 4 days tazemetostat, then 4 days agent alone or with tazemetostat, synergy by Loewe Volume, Fa-CI plots
Procedure: as §1

G401 cells = assay: Combination of tazemetostat with other agents, co-treatment model, luminescent cell viability (ATP) assay; format: cell-based; conditions: grown for seven days
Excerpt: (§2) Proliferation data was read for luminescence.

A204 cells = assay: as above; format: cell-based; conditions: grown for seven days
Excerpt: as §2

AT/RT and MRT cell lines = assay: In vitro combination studies of tazemetostat in a panel of AT/RT and MRT cell lines; format: cell-based; conditions: cell line models of AT/RT and MRT
CHLA-266 cells [3] = assay: Antiproliferative activity of tazemetostat, 2D culture, luminescent cell viability assay; format: cell-based; conditions: 0.08-10 μM, days 4, 6, 7, 11 and 15
Procedure: (§3) Cell viability was measured in a luminescent cell viability assay and is represented by luminescence counts.

BT-12 cells [4] = assay: as above; format: cell-based; conditions: 0.08-10 μM, days 4, 6, 7, 11 and 15
Procedure: as §3

[5] = system: atypical teratoid rhabdoid tumor (AT/RT) cells; assay: Tazemetostat pre-treatment followed by X-ray irradiation, 11 day clonogenic assay; format: cell-based; conditions: primed seven days, X-ray 2 Gy
MRT = conditions: preclinical models of MRT; cited from earlier work

Row | SMILES | Combination treatment with tazemetostat, CHLA-266 (CHLA-266 cells [1]) | Combination treatment with tazemetostat, BT-12 (BT-12 cells [2]) | Combination treatment with tazemetostat, G401 (G401 cells) | Combination treatment with tazemetostat, A204 (A204 cells) | Antiproliferative effect of combination with tazemetostat (AT/RT and MRT cell lines) | also measured
1 | CO[C@H]1C[C@@H]2CC[C@@H](C)[C@@](O)(O2)C(=O)C(=O)N2CCCC[C@H]2C(=O)O[C@H]([C@H](C)C[C@@H]2CC[C@@H](OCCO)[C@H](OC)C2)CC(=O)[C@H](C)/C=C(\C)[C@@H](O)[C@@H](OC)C(=O)[C@H](C)C[C@H](C)/C=C/C=C/C=C/1C [Everolimus] | Synergy | Synergy | Additive | Additive | – | –
2 | COc1cc(Nc2ncc3c(n2)-c2ccc(Cl)cc2C(c2c(F)cccc2OC)=NC3)ccc1C(=O)O [Alisertib] | Synergy | Synergy | Additive | Additive | Synergistic activity | Combination treatment with tazemetostat, CHLA-266 (CHLA-266 cells [1]; listed as alisertib): synergy; Combination treatment with tazemetostat, BT-12 (BT-12 cells [2]; listed as alisertib): synergy; Combination treatment with tazemetostat, G401 (G401 cells; listed as alisertib): synergy; Combination treatment with tazemetostat, A204 (A204 cells; listed as alisertib): synergy
3 | Nc1ccn([C@@H]2O[C@H](CO)[C@@H](O)[C@@H]2O)c(=O)n1 [Cytarabine/Ara-C, Cytarabine] | Additive | Synergy | Additive | Additive | – | –
4 | COc1cc([C@@H]2c3cc4c(cc3[C@@H](O[C@@H]3O[C@@H]5CO[C@@H](C)O[C@H]5[C@H](O)[C@H]3O)[C@H]3COC(=O)[C@H]23)OCO4)cc(OC)c1O [Etoposide] | Additive | Additive | Synergy | Additive | – | –
5 | CC[C@]1(O)C[C@H]2CN(CCc3c([nH]c4ccccc34)[C@@](C(=O)OC)(c3cc4c(cc3OC)N(C=O)[C@H]3[C@@](O)(C(=O)OC)[C@H](OC(C)=O)[C@]5(CC)C=CCN6CC[C@]43[C@@H]65)C2)C1 [Vincristine] | Synergy | Synergy | – | Synergy | Synergistic activity | Combination treatment with tazemetostat, CHLA-266 (CHLA-266 cells [1]; listed as vincristine): synergy; Combination treatment with tazemetostat, BT-12 (BT-12 cells [2]; listed as vincristine): synergy; Combination treatment with tazemetostat, G401 (G401 cells; listed as vincristine): synergy; Combination treatment with tazemetostat, A204 (A204 cells; listed as vincristine): synergy
6 | CC[C@@]1(O)C(=O)OCc2c1cc1n(c2=O)Cc2cc3c(CN(C)C)c(O)ccc3nc2-1 [Topotecan] | Synergy | Synergy | Synergy | Additive | synergistic interactions | –
7 | N.N.O=C([O-])C1(C(=O)[O-])CCC1.[Pt+2] [Carboplatin] | Additive | Additive | – | Additive | – | –
8 | CCN(c1cc(-c2ccc(CN3CCOCC3)cc2)cc(C(=O)NCc2c(C)cc(C)[nH]c2=O)c1C)C1CCOCC1 [tazemetostat] | – | – | – | – | – | Cell death / cell viability (CHLA-266 cells [3]): Time and dose dependent increases in cell death; Cell death / cell viability (BT-12 cells [4]): Time and dose dependent increases in cell death; Clonogenic survival, tazemetostat priming prior to X-ray irradiation [5]: reduction in clonogenic survival; Tumor response to tazemetostat treatment (MRT): robust tumor regressions
9 | Nc1ccccc1NC(=O)c1ccc(CNC(=O)OCc2cccnc2)cc1 [Entinostat] | Synergy | Synergy | Synergy | Additive | enhanced the antiproliferative effect | Combination treatment with tazemetostat, CHLA-266 (CHLA-266 cells [1]; listed as entinostat): synergy; Combination treatment with tazemetostat, BT-12 (BT-12 cells [2]; listed as entinostat): synergy; Combination treatment with tazemetostat, G401 (G401 cells; listed as entinostat): synergy; Combination treatment with tazemetostat, A204 (A204 cells; listed as entinostat): synergy
10 | COc1cccc2c1C(=O)c1c(O)c3c(c(O)c1C2=O)C[C@@](O)(C(=O)CO)C[C@@H]3O[C@H]1C[C@H](N)[C@H](O)[C@H](C)O1 [Doxorubicin] | Synergy | Synergy | Additive | Additive | Synergistic activity | Combination treatment with tazemetostat, CHLA-266 (CHLA-266 cells [1]; listed as doxorubicin): synergy; Combination treatment with tazemetostat, BT-12 (BT-12 cells [2]; listed as doxorubicin): synergy; Combination treatment with tazemetostat, G401 (G401 cells; listed as doxorubicin): synergy; Combination treatment with tazemetostat, A204 (A204 cells; listed as doxorubicin): synergy
